Data as given in patent US20070184490A1, “Neuronal nicotinic receptor ligands and their use” (priority 2006, published 2007).

How the values were obtained:
[1] = Phase 1 multiple dose human study; format: in vivo; details: 5 to 40 mg twice daily
[2] = pilot study: population PK plasma concentrations at steady state; format: in vivo, human
Procedure: Blood samples for pharmacokinetic analysis were taken at 0, 1, 2, 4, and 8 hours on Day 1 and at approximately 2 hours post-dose on the last day of each dosing period. The blood samples were immediately stored at 4° C. or below. The blood samples were centrifuged within one hour of collection using a refrigerated centrifuge to separate the plasma. The plasma samples were transferred using plastic pipettes into plastic vials. The plasma samples were frozen at −20° C. within one hour from centrifugation and remained frozen until shipped to Abbott Laboratories for analysis.
Due to limited pharmacokinetic sampling timepoints, trough and average concentrations were estimated using a non-linear mixed-effect pharmacokinetic modeling approach with NONMEM software Version V).

[3] = target: human α4 β2 NNRs (Homo sapiens, UniProt P17787+P43681); assay: binding to human α4β2 NNRs in vitro
human α4 β2 NNRs, sequence (P43681 29-627 limits assumed): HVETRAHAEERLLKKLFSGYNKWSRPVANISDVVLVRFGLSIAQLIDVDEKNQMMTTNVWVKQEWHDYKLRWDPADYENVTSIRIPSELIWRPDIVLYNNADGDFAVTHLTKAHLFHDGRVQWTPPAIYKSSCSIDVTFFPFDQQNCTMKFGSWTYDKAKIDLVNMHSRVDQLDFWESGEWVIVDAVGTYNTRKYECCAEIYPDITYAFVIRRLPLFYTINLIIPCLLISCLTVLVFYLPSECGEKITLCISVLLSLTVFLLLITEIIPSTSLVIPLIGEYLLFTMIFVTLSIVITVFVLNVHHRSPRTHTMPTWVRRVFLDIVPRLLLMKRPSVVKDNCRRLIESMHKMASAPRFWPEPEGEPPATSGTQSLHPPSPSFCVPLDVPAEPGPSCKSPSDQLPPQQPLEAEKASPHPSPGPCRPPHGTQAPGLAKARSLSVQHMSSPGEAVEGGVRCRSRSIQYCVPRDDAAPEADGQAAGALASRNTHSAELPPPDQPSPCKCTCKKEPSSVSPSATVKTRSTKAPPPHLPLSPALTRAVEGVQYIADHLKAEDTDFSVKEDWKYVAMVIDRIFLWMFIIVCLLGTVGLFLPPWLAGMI
human α4 β2 NNRs, sequence (P17787 26-502): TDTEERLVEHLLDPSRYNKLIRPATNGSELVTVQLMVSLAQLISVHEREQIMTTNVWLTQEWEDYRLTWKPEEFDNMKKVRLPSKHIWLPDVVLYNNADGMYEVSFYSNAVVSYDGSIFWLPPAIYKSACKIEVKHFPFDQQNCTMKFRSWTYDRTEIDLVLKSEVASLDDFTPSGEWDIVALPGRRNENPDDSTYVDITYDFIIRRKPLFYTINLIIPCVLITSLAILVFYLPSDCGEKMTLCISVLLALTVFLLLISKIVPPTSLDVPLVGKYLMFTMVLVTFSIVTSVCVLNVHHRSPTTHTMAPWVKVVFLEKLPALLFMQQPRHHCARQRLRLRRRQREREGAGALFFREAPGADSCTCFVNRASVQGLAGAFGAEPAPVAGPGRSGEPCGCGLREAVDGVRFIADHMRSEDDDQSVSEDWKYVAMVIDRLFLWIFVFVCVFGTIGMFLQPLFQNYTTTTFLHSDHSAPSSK

[4] = test system: α4β2, α3β4, or α3β2 NNR subtypes; assay: ion channel flux in cells expressing NNR subtypes; format: cell-based
Description: One method for assessing ion channel flux is via activation of ion flux into a cell expressed with recombinant α4β2, α3β4, or α3β2 NNR subtypes. Alternatively, a native cell line that expresses NNRs also can be suitable. The method can be accomplished under any suitable binding conditions. Examples of suitable binding conditions for [^3H]-cytisine binding have been described in the art, for example in at least U.S. Pat. Nos. 6,403,575 and 6,133,253, the procedures of which are herein incorporated by reference in their entirety. Data obtained from such ion channel flux assays can be evaluated to determine percent maximal nicotinic response (%), which directly correlates to percent maximal agonist efficacy.
Cells of IMR-32 human neuroblastoma clonal cell line (ATCC, Rockville, Md., USA) were maintained in a log phase of growth according to established procedures. Experimental cells were seeded at a density of 500,000 cells/mL into a 24-well tissue culture dish. Plated cells were allowed to proliferate for at least 48 hours before loading with 2 μCi/mL of ^86Rb^+ (35 Ci/mmol) overnight at 37° C. The ^86Rb^+ efflux assays were performed according to previously published protocols (Lukas, R. J., J. Pharmacol. Exp. Ther., 265, 294-302, 1993) except serum-free Dulbecco's Modified Eagle's medium was used during the ^86Rb^+ loading, rinsing, and agonist-induced efflux steps. […]

[5] = pilot study: tolerability and safety; format: in vivo, human; details: for Adverse event Headache, subjects reporting / Adverse event Increased appetite, subjects reporting / Adverse event Nervousness, subjects reporting / Adverse event Pain, subjects reporting / Adverse event Somnolence, subjects reporting: N=11
Procedure: Safety was evaluated by spontaneous report of adverse events; in addition, laboratory data (hematology, chemistry, urinalysis), vital signs, and electrocardiograms ([…]) were completed at baseline and at the end of each treatment period.

[6] = animal models; U-shaped dose-response; cited from earlier work

Cc1ncccc1OC[C@@H]1CCCN1 [ABT-089, 2-methyl-3-(2-(S)-pyrrolidinylmethoxy)pyridine]
tolerability [1]: well tolerated | Simple Reaction Time, a measure of attention ([1]; compared to placebo): significantly improved | Cavg Mean (±SD), model-predicted, steady state ([2]; 2 mg bid): 4.47 (1.05) ng/mL | Ctrough Mean (±SD), model-predicted, steady state ([2]; 2 mg bid): 1.85 (0.79) ng/mL | Cavg Mean (±SD), model-predicted, steady state ([2]; 4 mg bid): 8.94 (2.09) ng/mL | Ctrough Mean (±SD), model-predicted, steady state ([2]; 4 mg bid): 3.69 (1.59) ng/mL | Cavg Mean (±SD), model-predicted, steady state ([2]; 20 mg bid): 44.7 (10.46) ng/mL | Ctrough Mean (±SD), model-predicted, steady state ([2]; 20 mg bid): 18.46 (7.95) ng/mL | binding to human α4 β2 NNRs [3]: very selectively binds | agonist activity at NNRs expressed in vitro [4]: weak agonist activity | Adverse event Headache, subjects reporting ([5]; 2 mg bid): 3 | Adverse event Increased appetite, subjects reporting ([5]; 2 mg bid): 0 | Adverse event Nervousness, subjects reporting ([5]; 2 mg bid): 1 | Adverse event Pain, subjects reporting ([5]; 2 mg bid): 0 | Adverse event Somnolence, subjects reporting ([5]; 2 mg bid): 0 | serious adverse events ([5]; 2 mg to 20 mg twice daily): no serious adverse events | tolerability ([5]; 2 mg to 20 mg twice daily, 11 adult ADHD subjects): well tolerated | Adverse event Headache, subjects reporting ([5]; 4 mg bid): 0 | Adverse event Increased appetite, subjects reporting ([5]; 4 mg bid): 0 | Adverse event Nervousness, subjects reporting ([5]; 4 mg bid): 0 | Adverse event Pain, subjects reporting ([5]; 4 mg bid): 0 | Adverse event Somnolence, subjects reporting ([5]; 4 mg bid): 0 | nausea, subjects ([5]; 4 mg dose): one subject | Adverse event Headache, subjects reporting ([5]; 20 mg bid): 2 | Adverse event Nervousness, subjects reporting ([5]; 20 mg bid): 1 | Adverse event Pain, subjects reporting ([5]; 20 mg bid): 2 | Adverse event Somnolence, subjects reporting ([5]; 20 mg bid): 2 | laboratory findings, vital signs or ECG ([5]; during the study): no clinically meaningful findings or dose-related trends | plasma levels associated with efficacy [6]: 5 to 15 ng/mL
